Experimental data as given in patent US9079834B2, “HIV protease inhibitors” (Merck Canada Inc., priority 2010, dated 2015).

Experiments:
[1] = target: wild-type HIV-1 protease (Human immunodeficiency virus type 1 group M subtype B (isolate HXB2) (HIV-1), UniProt P04585); assay: Assay for inhibition of microbial expressed HIV protease; type: biochemical; conditions: wild-type HIV-1 protease enzyme
Experimental: The inhibition of WT HIV-1 protease was studied using the reaction of the protease (expressed in Escherichia coli) with a peptide substrate as described in WO 2009/042094. The test compound was first preincubated with the enzyme in assay buffer (50 mM sodium acetate, pH 5.5, 100 mM NaCl, and 0.1% BSA) for 30 minutes at room temperature. Substrate was then added to 400 micromolar in a total volume of 80 microliters containing 10 picomolar HIV-1 protease and the reaction was incubated for 1 hour at 30° C. The reaction was quenched with the addition of 120 microliters of 10% phosphoric acid. The product formation was determined after separation of product and substrate on a ZORBAX® Eclipse XDB-C18 (Agilent Technologies, Palo Alto, Calif.) column connected to an Agilent 1100 high performance liquid chromatography system with fluorescence detection (excitation 270 nanometer and emission 330 nanometer). Alternatively, the inhibitor was preincubated with enzyme and substrate as described above, but in a total volume of 20 microliters containing 20 picomolar HIV-1 protease and the reaction was incubated for 1 hour at 30° C. The reaction was quenched with the addition of 30 microliters of 1 micromolar indinavir (indinavir was also used as an internal standard), and the product formation was determined after separation of product and substrate on a ZORBAX® Eclipse XDB-C18 column connected to an API 4000 mass spectrometer (Applied Biosystems, Carlsbad, Calif.) with multiple reaction monitoring (transitions were 644.5/428.9 and 615.4/422.2 (M1/M3) for product and indinavir respectively). The extent of inhibition of the reaction was determined from the peak area of the products. HPLC of the products, independently synthesized, provided quantitation standards and confirmation of the product composition.

[2] = system: HIV-1 replication in T-lymphoid cells; assay: Assay for inhibition of HIV replication (spread assay); type: cell-based; conditions: 10% FBS
Experimental: Assays for the inhibition of acute HIV infection of T-lymphoid cells were conducted in accordance with Vacca, J. P. et al., Proc. Natl. Acad. Sci. USA 91: 4096-4100 (1994).

[3] = Human immunodeficiency virus 1, T-lymphoid

Row | Structure (SMILES) | IC50 [1] [nM] | IC95 [2] [nM] | IC95 [2, 3] [nM]
1 | COC(=O)N[C@H](C(=O)NCC(F)CC[C@@H](CO)N(CCC(C)C)S(=O)(=O)c1ccc(N)cc1)C(c1ccccc1)c1ccccc1 (single isomer, unassigned) [Example 1-2, N-[(2R or S,5S)-5-{[(4-aminophenyl)sulfonyl](3-methylbutyl)amino}-2-fluoro-6-hydroxyhexyl]-Nα-(methoxycarbonyl)-β-phenyl-L-phenylalaninamide] | 0.01 | 19.5 | 
2 | COC(=O)N[C@H](C(=O)NCCC(F)(F)C[C@@H](CO)N(CC1CC(F)(F)C1)S(=O)(=O)c1ccc2ncsc2c1)C(c1ccccc1)c1ccccc1 [Example 9, N-[(5S)-5-{(1,3-benzothiazol-6-ylsulfonyl)[(3,3-difluorocyclobutyl)methyl]amino}-3,3-difluoro-6-hydroxyhexyl]-Nα-(methoxycarbonyl)-β-phenyl-L-phenylalaninamide] | 5.62 |  | 105
3 | COC(=O)N[C@H](C(=O)NCC(F)(F)CC[C@@H](CO)N(CC1CC(F)(F)C1)S(=O)(=O)c1ccc2ncsc2c1)C(c1ccccc1)c1ccccc1 [Example 4, N-[(5S)-5-{(1,3-benzothiazol-6-ylsulfonyl)[(3,3-difluorocyclobutyl)methyl]amino}-2,2-difluoro-6-hydroxyhexyl]-Nα-(methoxycarbonyl)-β-phenyl-L-phenylalaninamide] | 0.59 |  | 181
4 | COC(=O)N[C@H](C(=O)NCC(F)(F)CC[C@@H](CO)N(Cc1cn[nH]c1)S(=O)(=O)c1ccc2ncsc2c1)C(c1ccccc1)c1ccccc1 [Example 5, N-{(5S)-5-[(1,3-benzothiazol-6-ylsulfonyl)(1H-pyrazol-4-ylmethyl)amino]-2,2-difluoro-6-hydroxyhexyl}-Nα-(methoxycarbonyl)-β-phenyl-L-phenylalaninamide] | 0.39 |  | 907
5 | COC(=O)N[C@H](C(=O)NCCC(F)(F)C[C@@H](CO)N(C(C)C)S(=O)(=O)c1ccc(N)cc1)C(c1ccccc1)c1ccccc1 [Example 8, N-[(5S)-5-{[(4-aminophenyl)sulfonyl](propan-2-yl)amino}-3,3-difluoro-6-hydroxyhexyl]-Nα-(methoxycarbonyl)-β-phenyl-L-phenylalaninamide] | 6.07 |  | 299
6 | CCCCCN([C@H](CO)CCC(F)(F)CNC(=O)[C@@H](NC(=O)OC)C(c1ccccc1)c1ccccc1)S(=O)(=O)c1ccc(CO)cc1 [Example 2] | 0.019 |  | 16.3
7 | COC(=O)N[C@H](C(=O)NCC(F)CC[C@@H](CO)N(CCC(C)C)S(=O)(=O)c1ccc(N)cc1)C(c1ccccc1)c1ccccc1 (single isomer, unassigned) [Example 1-1, N-[(2R or S,5S)-5-{[(4-aminophenyl)sulfonyl](3-methylbutyl)amino}-2-fluoro-6-hydroxyhexyl]-Nα-(methoxycarbonyl)-β-phenyl-L-phenylalaninamide] | 0.24 | 42.8 | 
8 | COC(=O)N[C@H](C(=O)NCC(F)CC[C@@H](CO)N(CCC(C)C)S(=O)(=O)c1ccc(N)cc1)C(c1ccccc1)c1ccccc1 (stereo partly drawn) [Example 1, N-[(5S)-5-{[(4-aminophenyl)sulfonyl](3-methylbutyl)amino}-2-fluoro-6-hydroxyhexyl]-Nα-(methoxycarbonyl)-β-phenyl-L-phenylalaninamide] | 0.03 |  | 10.7
9 | COC(=O)N[C@H](C(=O)NCC(F)(F)CC[C@@H](CO)N(C1CCC(F)(F)CC1)S(=O)(=O)c1ccc2ncsc2c1)C(c1ccccc1)c1ccccc1 [Example 6, N-{(5S)-5-[(1,3-benzothiazol-6-ylsulfonyl)(4,4-difluorocyclohexyl)amino]-2,2-difluoro-6-hydroxyhexyl)-Nα-(methoxycarbonyl)-β-phenyl-L-phenylalaninamide] | 2.73 |  | 356
10 | COC(=O)N[C@H](C(=O)NCC(F)(F)CC[C@@H](C(N)=O)N(CC1CC(F)(F)C1)S(=O)(=O)c1ccc2ncsc2c1)C(c1ccccc1)c1ccccc1 [Example 7, N^6-[N-(methoxycarbonyl)-β-phenyl-L-phenylalanyl]-N^2-(1,3-benzothiazol-6-ylsulfonyl)-N^2-[(3,3-difluorocyclobutyl)methyl]-5,5-difluoro-L-lysinamide] | 0.43 |  | 200
11 | COC(=O)N[C@H](C(=O)NCCC(F)C[C@@H](CO)N(C(C)C)S(=O)(=O)c1ccc(N)cc1)C(c1ccccc1)c1ccccc1 (stereo partly drawn) [Example 10, N-[(5S)-5-{[(4-aminophenyl)sulfonyl](propan-2-yl)amino}-3-fluoro-6-hydroxyhexyl]-Nα-(methoxycarbonyl)-β-phenyl-L-phenylalaninamide] | 3.9 |  | 246
